Values joined by “and” are separate entries in the source; they are usually repeats but may differ in a detail not shown here. Equal values may be shown once.
Assays:
[1] = (§1) NOVARTIS: Cytotoxicity against human hepatocellular carcinoma cell line (Huh7); assay type: toxicity, cell-based, Huh-7; settings: Huh7 cells (hepatocellular carcinoma cell line)
[2] = tested on: Huh-7; experiment: as §1; assay type: toxicity, cell-based; settings: huh-7, read-out: CC50
[3] = tested on: Plasmodium falciparum; experiment: NOVARTIS: Inhibition of Plasmodium falciparum W2 (drug-resistant) proliferation in erythrocyte-based infection assay; assay type: functional, organism-based; settings: read-out: EC50
[4] = tested on: Plasmodium falciparum; experiment: NOVARTIS: Inhibition of Plasmodium falciparum 3D7 (drug-susceptible) proliferation in erythrocyte-based infection assay; assay type: functional, organism-based

Row | SMILES | CC50 [1] [nM] | CC50 [2] | EC50 ([3]; Plasmodium falciparum, W2) [nM] | EC50 [3] | EC50 [4] | EC50 ([4]; Plasmodium falciparum, 3D7) [nM]
1 | CCN1C(=Cc2sc3ccc(O)cc3[n+]2CC)C=Cc2cc(C)ccc21 | 5790 | > 10000 nM | 291 | 383 nM | 188 nM and 376 nM | 
2 | Cc1cc(/C=C2\Sc3ccccc3N2C)[n+](C)c2ccccc12 | 6370 | 11500 nM | 94 | 80.2 nM | 90.6 nM and 39.2 nM | 
3 | CCN1/C(=C/c2ccc3cc(OC)ccc3[n+]2CC)Sc2cc(C)ccc21 | 19200 | 11700 nM |  | 275 nM and 86.2 nM | 90.7 nM | 161
4 | CCN(CC)c1ccc(C=Cc2cc[n+](Cc3ccc(F)cc3)cc2)cc1 | 5290 | > 10000 nM | 769 | 578 nM | 417 nM | 241
5 | COc1ccc(C=C2SC(Nc3ccc(F)cc3)=NC2=O)c(OC)c1 | 12200 | 12000 nM | 753 | 532 nM | 277 nM | 266
6 | CCN1/C(=C/C=C/c2oc3ccc(-c4ccccc4)cc3[n+]2CC)Oc2ccc(-c3ccccc3)cc21 | > 10000 | 10700 nM | 1060 | > 569 nM |  | > 1720
7 | CCN1/C(=C/c2ccc3ccccc3[n+]2CC)Sc2c1ccc1ccccc21 | > 10000 | 7140 nM |  | 682 nM and > 621 nM and 212 nM | 225 nM and 631 nM and 334 nM | 
8 | CC[n+]1c(C=CN(C)c2ccccc2)oc(-c2ccccc2)c1-c1ccccc1 |  | > 10000 nM and 2740 nM |  | 410 nM and 105 nM | 617 nM and 193 nM | 
9 | C=CCN1C=CC(=Cc2sc3ccccc3[n+]2C)c2ccccc21 |  | 14200 nM |  | 115 nM | 89.7 nM | 
10 | C[n+]1ccccc1C=Cc1cc(Br)ccc1O |  | > 10000 nM | 441 |  |  | 302
11 | CC[n+]1c(/C=C2\Sc3oc4ccccc4c3N2C)ccc2cc(C)ccc21 |  | 3590 nM and 13600 nM | 84.7 | 89.7 nM | 87.5 nM and 253 nM | 
12 | CCN1/C(=C/c2ccc3ccccc3[n+]2CC)Sc2cc(NC(C)=O)ccc21 |  | > 10000 nM |  | 714 nM | 930 nM | 
13 | CCN1/C(=C/c2cccc[n+]2C)C=Cc2ccc(C)cc21 |  | > 49800 nM | 328 | 448 nM | 225 nM and 489 nM | 
14 | CC[n+]1c(/C=C/N2CCCc3ccccc32)ccc2ccccc21 |  | > 9970 nM |  | 246 nM | 103 nM | 
15 | CCN1C(=Cc2sc3cc(NC(C)=O)ccc3[n+]2CC)C=Cc2cc(C)ccc21 |  | > 10000 nM | 568 |  | 1570 nM | 
